According to ChEMBL document CHEMBL4145670, “A Bioactive Resveratrol Trimer from the Stem Bark of the Sri Lankan Endemic Plant Vateria copallifera” (J Nat Prod, 2018):
Activity calls are given as the source filed them. The rule behind the calls is not given here.

Columns and labels:
Homo sapiens [1] = species: Homo sapiens; settings: 1.5 uM
Description: Inhibition of GST (unknown origin) at 1.5 uM using CDNB as substrate relative to control

Homo sapiens [2] = species: Homo sapiens; settings: 44.1 uM
Description: Inhibition of elastase (unknown origin) at 44.1 uM using N-succinyl-Ala-Ala-Ala-p-nitroanilide as substrate pretreated for 25 mins followed by substrate addition relative to control

HepG2 = experiment: cells; settings: Homo sapiens, HepG2, 48 h, read-out: GI
Description: Growth inhibition of human HepG2 cells at 147.2 uM after 48 hrs by methylene blue staining based assay relative to control

MCF7 = experiment: cells; settings: Homo sapiens, MCF7, 48 h, read-out: GI
Description: Growth inhibition of human MCF7 cells at 147.2 uM after 48 hrs by methylene blue staining based assay relative to control

PC-12 = experiment: cells; settings: Rattus norvegicus, PC-12, 3 h, read-out: Activity
SK-MEL-5 = experiment: cells; settings: Homo sapiens, SK-MEL-5, 48 h, read-out: GI
Description: Growth inhibition of human SK-MEL-5 cells at 147.2 uM after 48 hrs by methylene blue staining based assay relative to control

[3] = biological target: Cholinesterase (Homo sapiens) (UniProt P06276); settings: 14.7 uM
Description: Inhibition of BChE (unknown origin) at 14.7 uM using butyrylthiocholine iodide as substrate pretreated for 15 mins followed by substrate addition and measured by DTNB reagent based assay

HCT-116 = experiment: cells; settings: Homo sapiens, HCT-116, 48 h, read-out: GI
Description: Growth inhibition of human HCT116 cells at 147.2 uM after 48 hrs by methylene blue staining based assay relative to control

[4] = biological target: Cholinesterase (Homo sapiens) (UniProt P06276); settings: 10 ug/ml
Description: Inhibition of BChE (unknown origin) at 10 ug/ml using butyrylthiocholine iodide as substrate pretreated for 15 mins followed by substrate addition and measured by DTNB reagent based assay relative to control

HeLa = experiment: cells; settings: Homo sapiens, 48 h, read-out: GI
Description: Growth inhibition of human HeLa cells at 147.2 uM after 48 hrs by methylene blue staining based assay relative to control

Homo sapiens [5] = species: Homo sapiens; settings: 147.2 uM
Description: Inhibition of alpha-chymotrypsin (unknown origin) at 147.2 uM using N-succinyl-L-phenylalanine-p-nitroanilide as substrate pretreated for 25 mins followed by substrate addition relative to control

Chain of Cholinesterase (Homo sapiens) (P06276 whole entry): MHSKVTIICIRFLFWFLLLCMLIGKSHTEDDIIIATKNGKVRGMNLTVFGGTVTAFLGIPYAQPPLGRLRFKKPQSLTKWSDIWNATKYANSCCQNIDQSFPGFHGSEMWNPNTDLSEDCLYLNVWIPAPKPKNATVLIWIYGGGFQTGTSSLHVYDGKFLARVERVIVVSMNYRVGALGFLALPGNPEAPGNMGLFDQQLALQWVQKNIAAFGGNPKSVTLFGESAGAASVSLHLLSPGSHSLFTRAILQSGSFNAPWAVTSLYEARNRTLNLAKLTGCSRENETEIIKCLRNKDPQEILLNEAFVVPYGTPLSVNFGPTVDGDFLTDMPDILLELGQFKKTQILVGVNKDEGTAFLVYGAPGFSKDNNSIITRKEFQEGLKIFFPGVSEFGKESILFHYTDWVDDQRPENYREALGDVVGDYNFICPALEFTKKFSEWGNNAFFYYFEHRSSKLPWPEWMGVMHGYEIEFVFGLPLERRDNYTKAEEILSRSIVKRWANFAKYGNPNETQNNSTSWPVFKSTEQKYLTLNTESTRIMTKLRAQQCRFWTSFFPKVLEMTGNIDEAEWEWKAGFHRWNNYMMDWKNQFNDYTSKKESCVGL

SMILES: Oc1ccc(-c2oc3cc(O)c4c5c3c2-c2cc(O)cc(O)c2[C@H](c2ccc(O)cc2)[C@@H]5[C@H](c2ccc(O)cc2)[C@@H]4c2cc(O)cc(O)c2)cc1
- inhibition (Homo sapiens [1]): 34.7%
- inhibition (Homo sapiens [2]): 10.2%
- inhibition of growth at 147.2 µM (HepG2): < 50%
- inhibition of growth at 147.2 µM (MCF7): < 50%
- viability at 1.5 µM (PC-12): 88.3%
- inhibition of growth at 147.2 µM (SK-MEL-5): < 50%
- inhibition [3]: inactive
- inhibition of growth at 147.2 µM (HCT-116): < 50%
- inhibition [4]: 19.7%
- inhibition of growth at 147.2 µM (HeLa): < 50%
- inhibition (Homo sapiens [5]): 55.7%
